ChEMBL document CHEMBL3885881, “DrugMatrix”

Organism: Rattus norvegicus
Test: DrugMatrix - Regimen: Daily Repeat
Format: toxicity, organism-based, Sprague-Dawley
Set-up: regimen Daily Repeat, gender Male, age 6-8 weeks
Settings: in vivo, po, route oral GAVAGE, vehicle 100 % WATER; for ABSOLUTE BASOPHIL / ABSOLUTE EOSINOPHIL / ABSOLUTE LYMPHOCYTE / ABSOLUTE MONOCYTE / ABSOLUTE SEGMENTED NEUTROPHIL / BASOPHIL / EOSINOPHIL / ERYTHROCYTE COUNT / HEMATOCRIT / HEMOGLOBIN / LEUKOCYTE COUNT / LYMPHOCYTE / MEAN CORPUSCULAR HEMOGLOBIN / MEAN CORPUSCULAR HEMOGLOBIN CONCENTRATION / MEAN CORPUSCULAR VOLUME / MONOCYTE / NEUTROPHIL / NUCLEATED RED BLOOD CELLS / PLATELET COUNT: tissue Blood; for ALANINE AMINOTRANSFERASE / ALBUMIN / ALKALINE PHOSPHATASE / ASPARTATE AMINOTRANSFERASE / BLOOD UREA NITROGEN / CARBON DIOXIDE / CHLORIDE / CHOLESTEROL / CREATINE PHOSPHOKINASE / CREATININE / GLUCOSE / LACTATE DEHYDROGENASE / LIPASE / PHOSPHORUS / POTASSIUM / SODIUM / TOTAL BILIRUBIN / TOTAL PROTEIN / URIC ACID: tissue Plasma
[1] = 0 mg/kg, 72 h, dose level Control, time 3 day
[2] = 0 mg/kg, 120 h, dose level Control, time 5 day
[3] = 1 mg/kg, 72 h, dose level Low, time 3 day

CN1C2CCCC1CC(NC(=O)c1nn(C)c3ccccc13)C2 (centres undefined) [GRANISETRON]
ABSOLUTE BASOPHIL [1]: 0 CELLS/uL | ABSOLUTE EOSINOPHIL [1]: 0 CELLS/uL | ABSOLUTE LYMPHOCYTE [1]: 8482.5 CELLS/uL | ABSOLUTE MONOCYTE [1]: 63.83 CELLS/uL | ABSOLUTE SEGMENTED NEUTROPHIL [1]: 887 CELLS/uL | BASOPHIL [1]: 0% | EOSINOPHIL [1]: 0% | ERYTHROCYTE COUNT [1]: 5.49 x10E6/uL | HEMATOCRIT [1]: 34.5% | HEMOGLOBIN [1]: 13.33 G/DL | LEUKOCYTE COUNT [1]: 9.43 x10E3/uL | LYMPHOCYTE [1]: 90.17% | MEAN CORPUSCULAR HEMOGLOBIN [1]: 24.3 pg | MEAN CORPUSCULAR HEMOGLOBIN CONCENTRATION [1]: 38.63 G/DL | MEAN CORPUSCULAR VOLUME [1]: 62.88 fL | MONOCYTE [1]: 0.67% | NEUTROPHIL [1]: 9.17% | NUCLEATED RED BLOOD CELLS [1]: 0.67 /100WBC | PLATELET COUNT [1]: 1022.83 x10E3/uL | ALANINE AMINOTRANSFERASE [1]: 50.5 u/L | ALBUMIN [1]: 4.08 G/DL | ALKALINE PHOSPHATASE [1]: 368.33 u/L | ASPARTATE AMINOTRANSFERASE [1]: 87.5 u/L | BLOOD UREA NITROGEN [1]: 12.83 mg/dL | CARBON DIOXIDE [1]: 32.83 mmol/L | CHLORIDE [1]: 99.67 MEQ/L | CHOLESTEROL [1]: 79.67 mg/dL | CREATINE PHOSPHOKINASE [1]: 585 u/L | CREATININE [1]: 0.22 mg/dL | GLUCOSE [1]: 135.67 mg/dL | LACTATE DEHYDROGENASE [1]: 171 u/L | LIPASE [1]: 9.5 u/L | PHOSPHORUS [1]: 11.18 mg/dL | POTASSIUM [1]: 6.25 MEQ/L | SODIUM [1]: 144.87 MEQ/L | TOTAL BILIRUBIN [1]: 0.2 mg/dL | TOTAL PROTEIN [1]: 6.08 G/DL | URIC ACID [1]: 0.65 mg/dL | ABSOLUTE BASOPHIL [2]: 0 CELLS/uL | ABSOLUTE EOSINOPHIL [2]: 14.5 CELLS/uL | ABSOLUTE LYMPHOCYTE [2]: 7596.17 CELLS/uL | ABSOLUTE MONOCYTE [2]: 69.67 CELLS/uL | ABSOLUTE SEGMENTED NEUTROPHIL [2]: 503 CELLS/uL | BASOPHIL [2]: 0% | EOSINOPHIL [2]: 0.17% | ERYTHROCYTE COUNT [2]: 5.49 x10E6/uL | HEMATOCRIT [2]: 34.72% | HEMOGLOBIN [2]: 13.47 G/DL | LEUKOCYTE COUNT [2]: 8.18 x10E3/uL | LYMPHOCYTE [2]: 92.17% | MEAN CORPUSCULAR HEMOGLOBIN [2]: 24.57 pg | MEAN CORPUSCULAR HEMOGLOBIN CONCENTRATION [2]: 38.82 G/DL | MEAN CORPUSCULAR VOLUME [2]: 63.3 fL | MONOCYTE [2]: 1% | NEUTROPHIL [2]: 6.67% | NUCLEATED RED BLOOD CELLS [2]: 0 /100WBC | PLATELET COUNT [2]: 1141 x10E3/uL | ALANINE AMINOTRANSFERASE [2]: 48.33 u/L | ALBUMIN [2]: 4.07 G/DL | ALKALINE PHOSPHATASE [2]: 395.67 u/L | ASPARTATE AMINOTRANSFERASE [2]: 85.67 u/L | BLOOD UREA NITROGEN [2]: 15.83 mg/dL | CARBON DIOXIDE [2]: 31.33 mmol/L | CHLORIDE [2]: 100.83 MEQ/L | CHOLESTEROL [2]: 62.33 mg/dL | CREATINE PHOSPHOKINASE [2]: 248.33 u/L | CREATININE [2]: 0.2 mg/dL | GLUCOSE [2]: 135.67 mg/dL | LACTATE DEHYDROGENASE [2]: 141.33 u/L | LIPASE [2]: 9.5 u/L | PHOSPHORUS [2]: 10.73 mg/dL | POTASSIUM [2]: 6.07 MEQ/L | SODIUM [2]: 145.35 MEQ/L | TOTAL BILIRUBIN [2]: 0.22 mg/dL | TOTAL PROTEIN [2]: 6.12 G/DL | URIC ACID [2]: 0.63 mg/dL | ABSOLUTE BASOPHIL [3]: 0 CELLS/uL | ABSOLUTE EOSINOPHIL [3]: 35.67 CELLS/uL | ABSOLUTE LYMPHOCYTE [3]: 7674 CELLS/uL | ABSOLUTE MONOCYTE [3]: 0 CELLS/uL | ABSOLUTE SEGMENTED NEUTROPHIL [3]: 690.33 CELLS/uL | BASOPHIL [3]: 0% | EOSINOPHIL [3]: 0.33% | ERYTHROCYTE COUNT [3]: 5.55 x10E6/uL | HEMATOCRIT [3]: 33.93% | HEMOGLOBIN [3]: 12.9 G/DL | LEUKOCYTE COUNT [3]: 8.4 x10E3/uL | LYMPHOCYTE [3]: 92% | MEAN CORPUSCULAR HEMOGLOBIN [3]: 23.3 pg | MEAN CORPUSCULAR HEMOGLOBIN CONCENTRATION [3]: 38.03 G/DL | MEAN CORPUSCULAR VOLUME [3]: 61.3 fL | MONOCYTE [3]: 0% | NEUTROPHIL [3]: 7.67% | NUCLEATED RED BLOOD CELLS [3]: 0.33 /100WBC | PLATELET COUNT [3]: 1023.67 x10E3/uL | ALANINE AMINOTRANSFERASE [3]: 49 u/L | ALBUMIN [3]: 4 G/DL | ALKALINE PHOSPHATASE [3]: 371 u/L | ASPARTATE AMINOTRANSFERASE [3]: 82.67 u/L | BLOOD UREA NITROGEN [3]: 11.67 mg/dL | CARBON DIOXIDE [3]: 34 mmol/L | CHLORIDE [3]: 99.33 MEQ/L | CHOLESTEROL [3]: 76.33 mg/dL | CREATINE PHOSPHOKINASE [3]: 380.33 u/L | CREATININE [3]: 0.29 mg/dL | GLUCOSE [3]: 141.67 mg/dL | LACTATE DEHYDROGENASE [3]: 138.33 u/L | LIPASE [3]: 12 u/L | PHOSPHORUS [3]: 10.8 mg/dL | POTASSIUM [3]: 5.77 MEQ/L | SODIUM [3]: 145.17 MEQ/L | TOTAL BILIRUBIN [3]: 0.1 mg/dL | TOTAL PROTEIN [3]: 5.83 G/DL | URIC ACID [3]: 0.57 mg/dL
